What was measured:
[1] = system: ocular normotensive cynomolgus monkeys; assay: Periorbital skin and pupil observations after single periorbital dose of 10-30 micrograms (Example 1); format: in vivo, cynomolgus monkey
Method: (§1) Ocular normotensive cynomolgus monkeys were administered a single dose of JV-GL1 Ointment (20% medium-chain triglycerides and 80% petrolatum (v/v)) to the periorbital skin of the right eye (OD) at JV-GL1 doses of 10 micrograms, 20 micrograms, and 30 micrograms and TOP was measured; Lumigan® eye drops were used as a comparator. […] Compared with baseline, IOP was decreased in the eyes (OD) of animals treated with 10 micrograms, 20 micrograms, and 30 micrograms JVGL-1 to a similar extent (approximately 60%) whereas a much lower decrease occurred for Lumigan® (approximately 30%).
The incidence rate of pupil constriction in the three test article groups was 100% after 2-3 hours post-dosing.

monkey = assay: Monkey study of periorbital skin administration versus eye drops; format: in vivo; conditions: essentially equal doses
human subjects [2] = assay: IOP in human subjects after once daily periorbital ointment (Example 6); format: in vivo
Method: (§2) Human subjects were treated with JV-GL1 ointment (20% medium-chain triglycerides and 80% petrolatum (v/v)) via periorbital skin administration to both eyes once daily. The human subjects were monitored daily for 9 days, with TOP measurements taken at 0 hours, 0.5 hours, 2 hours, and 8 hours from administration of the dose on Days 0, 1, and 9. IOP measurements were taken 0 hours from administration of the dose on Days 4 and 7.

human subjects [3] = assay: Tolerability in human subjects during periorbital dosing (Example 6); format: in vivo; conditions: Groups 1-4, during the dosing period
Method: as §2

[4] = system: ocular normotensive cynomolgus monkeys; assay: Intraocular pressure after once daily periorbital 0.2 μg/eye ointment (Example 2); format: in vivo, cynomolgus monkey
Method: Animals were unilaterally treated via periorbital skin administration of [(3′-fluoro-4-fluorobiphenyl-3-carbonyl) amino] phenoxyacetic acid isopropyl ester ointment once daily on Days 15-21. The right eye of the control group (Group 2) received ointment vehicle once daily on Days 8-14 and no treatment on Days 15-21. OD=right eye.
Ocular normotensive cynomolgus monkeys (Group 1, n=3) were unilaterally treated via periorbital skin administration of JV-GL1 ointment once daily in an amount of 0.2 μg in the right eye on Days 15-21 of a study, the results of which are shown in FIG. 3. JV-GL1 was administered as an ointment (20% medium-chain triglycerides and 80% petrolatum (v/v)). The animals were untreated on days 8-14 and IOP monitored daily. Group 2 (n=3) was administered vehicle ointment alone on days 8-14, followed by no treatment on days 15-21 of the study.

[5] = system: ocular normotensive cynomolgus monkeys; assay: Intraocular pressure after single periorbital dose (Example 1); format: in vivo, cynomolgus monkey; conditions: single periorbital dose of 10, 20 and 30 micrograms (similar extent), right eye (OD)
Source text: FIG. 2 compares the effect of 9 micrograms bimatoprost (30 pi of 0.03% Lumigan® ophthalmic solution) topical ocular surface administration once daily per eye for 4 days with single dose periorbital skin administration of [(3′-fluoro-4-fluorobiphenyl-3-carbonyl) amino] phenoxyacetic acid isopropyl ester ointment at 10 micrograms, 20 micrograms or 30 micrograms [(3′-fluoro-4-fluorobiphenyl-3-carbonyl) amino] phenoxyacetic acid isopropyl ester on intraocular pressure (TOP) in ocular normotensive Cynomolgus monkeys (Mean±SEM, n=4/group).
as §1

[6] = system: ocular normotensive cynomolgus monkeys; assay: Local observations after low periorbital doses of ointment (0.2 to 5 micrograms/eye); format: in vivo, cynomolgus monkey
Method: Separately, ocular normotensive cynomolgus monkeys were administered single doses of the ointment at 0.6 micrograms, 2.0 micrograms or 5.0 micrograms per eye.

DP receptors = target: T1, DP receptors (Homo sapiens, UniProt Q13258); conditions: Woodward et al., 2019; cited from earlier work
T1 sequence (Q13258 1-359): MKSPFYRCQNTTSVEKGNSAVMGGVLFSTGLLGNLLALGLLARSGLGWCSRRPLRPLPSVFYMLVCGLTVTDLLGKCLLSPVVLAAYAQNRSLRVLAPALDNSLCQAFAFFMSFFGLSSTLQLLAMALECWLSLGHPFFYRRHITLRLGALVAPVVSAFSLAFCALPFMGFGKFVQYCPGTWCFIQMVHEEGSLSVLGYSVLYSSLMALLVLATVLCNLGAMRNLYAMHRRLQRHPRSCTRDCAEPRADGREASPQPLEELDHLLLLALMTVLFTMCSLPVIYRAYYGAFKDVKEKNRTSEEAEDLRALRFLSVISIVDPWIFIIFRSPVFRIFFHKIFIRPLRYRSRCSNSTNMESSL

IP receptors = IP receptors (Homo sapiens, UniProt P43119); conditions: Woodward et al., 2019; cited from earlier work
TP receptors = target: T2, TP receptors (Homo sapiens, UniProt P21731); conditions: Woodward et al., 2019; cited from earlier work
T2 sequence (P21731 1-343): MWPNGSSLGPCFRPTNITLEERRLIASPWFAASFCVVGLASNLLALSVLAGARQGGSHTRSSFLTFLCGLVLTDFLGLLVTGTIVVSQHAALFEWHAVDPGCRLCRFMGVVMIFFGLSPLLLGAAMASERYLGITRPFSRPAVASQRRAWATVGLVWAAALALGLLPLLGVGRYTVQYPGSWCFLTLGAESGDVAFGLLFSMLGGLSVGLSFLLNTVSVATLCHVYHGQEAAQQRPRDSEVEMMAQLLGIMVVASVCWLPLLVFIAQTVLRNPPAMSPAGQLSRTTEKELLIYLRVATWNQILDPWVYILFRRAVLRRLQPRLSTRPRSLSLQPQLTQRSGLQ

FP receptors = FP receptors (Homo sapiens, UniProt P43088); conditions: Woodward et al., 2019; cited from earlier work
[7] = target: T3, human recombinant EP2 receptors (Homo sapiens, UniProt P43116); conditions: cited from earlier work
T3 construct: expressed in transfected cells; host or cells: HEK cells

EP4 receptors = EP4 receptors (Homo sapiens, UniProt P35408); conditions: Woodward et al., 2019; cited from earlier work
EP1 receptors = target: T4, EP1 receptors (Homo sapiens, UniProt P34995); conditions: Woodward et al., 2019; cited from earlier work
T4 sequence (P34995 1-402): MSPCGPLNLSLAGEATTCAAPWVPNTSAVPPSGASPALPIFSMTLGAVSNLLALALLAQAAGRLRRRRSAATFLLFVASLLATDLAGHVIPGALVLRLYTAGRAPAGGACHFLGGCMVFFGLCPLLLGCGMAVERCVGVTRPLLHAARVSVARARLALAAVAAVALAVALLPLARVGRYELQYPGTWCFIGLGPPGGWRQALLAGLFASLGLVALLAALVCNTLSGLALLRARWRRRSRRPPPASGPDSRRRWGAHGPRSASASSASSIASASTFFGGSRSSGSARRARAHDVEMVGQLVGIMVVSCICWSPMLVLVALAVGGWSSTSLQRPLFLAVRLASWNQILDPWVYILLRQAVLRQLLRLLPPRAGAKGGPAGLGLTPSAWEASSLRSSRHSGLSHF

EP3 receptors = target: T5, EP3 receptors (Homo sapiens, UniProt P43115); conditions: Woodward et al., 2019; cited from earlier work
T5 sequence (P43115 1-390): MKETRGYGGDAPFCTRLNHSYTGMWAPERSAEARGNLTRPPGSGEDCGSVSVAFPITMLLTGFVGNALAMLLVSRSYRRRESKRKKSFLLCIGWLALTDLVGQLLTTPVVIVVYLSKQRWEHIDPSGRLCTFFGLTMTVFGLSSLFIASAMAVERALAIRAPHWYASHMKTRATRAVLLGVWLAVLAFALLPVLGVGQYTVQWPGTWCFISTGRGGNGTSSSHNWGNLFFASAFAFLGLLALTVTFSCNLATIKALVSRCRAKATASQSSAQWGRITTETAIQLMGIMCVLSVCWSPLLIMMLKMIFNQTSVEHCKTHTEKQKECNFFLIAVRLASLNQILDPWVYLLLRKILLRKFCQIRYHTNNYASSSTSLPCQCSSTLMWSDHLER

[8] = 10, 20, 30 micrograms single dose

T3 sequence (P43116 whole entry): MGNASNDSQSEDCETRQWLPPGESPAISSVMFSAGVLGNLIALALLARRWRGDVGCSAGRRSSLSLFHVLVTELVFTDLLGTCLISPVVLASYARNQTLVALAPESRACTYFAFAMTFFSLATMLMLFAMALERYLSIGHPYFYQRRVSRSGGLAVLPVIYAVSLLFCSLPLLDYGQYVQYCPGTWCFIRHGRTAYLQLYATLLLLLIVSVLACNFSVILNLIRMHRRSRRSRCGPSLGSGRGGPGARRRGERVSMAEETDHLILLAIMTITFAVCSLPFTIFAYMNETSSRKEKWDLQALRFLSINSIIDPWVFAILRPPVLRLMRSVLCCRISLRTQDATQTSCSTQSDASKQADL
IP receptors, sequence (P43119 whole entry): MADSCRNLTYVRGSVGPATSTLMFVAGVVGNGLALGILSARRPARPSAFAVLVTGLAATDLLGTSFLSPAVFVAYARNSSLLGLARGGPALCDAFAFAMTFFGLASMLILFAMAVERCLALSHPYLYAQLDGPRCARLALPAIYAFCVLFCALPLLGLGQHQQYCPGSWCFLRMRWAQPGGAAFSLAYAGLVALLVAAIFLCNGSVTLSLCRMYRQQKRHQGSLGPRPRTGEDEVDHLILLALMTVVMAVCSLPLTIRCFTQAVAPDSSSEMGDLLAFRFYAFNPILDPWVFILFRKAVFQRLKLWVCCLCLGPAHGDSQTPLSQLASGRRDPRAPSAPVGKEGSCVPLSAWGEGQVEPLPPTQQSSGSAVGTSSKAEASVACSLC
FP receptors, sequence (P43088 whole entry): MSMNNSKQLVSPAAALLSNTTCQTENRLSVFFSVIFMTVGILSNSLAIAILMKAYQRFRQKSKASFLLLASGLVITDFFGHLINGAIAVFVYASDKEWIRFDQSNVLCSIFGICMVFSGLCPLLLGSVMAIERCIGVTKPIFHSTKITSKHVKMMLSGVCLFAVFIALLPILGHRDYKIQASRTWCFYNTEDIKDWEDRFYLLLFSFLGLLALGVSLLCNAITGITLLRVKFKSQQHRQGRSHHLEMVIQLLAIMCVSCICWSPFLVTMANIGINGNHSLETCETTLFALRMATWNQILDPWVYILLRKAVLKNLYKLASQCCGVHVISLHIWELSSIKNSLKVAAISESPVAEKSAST
EP4 receptors, sequence (P35408 whole entry): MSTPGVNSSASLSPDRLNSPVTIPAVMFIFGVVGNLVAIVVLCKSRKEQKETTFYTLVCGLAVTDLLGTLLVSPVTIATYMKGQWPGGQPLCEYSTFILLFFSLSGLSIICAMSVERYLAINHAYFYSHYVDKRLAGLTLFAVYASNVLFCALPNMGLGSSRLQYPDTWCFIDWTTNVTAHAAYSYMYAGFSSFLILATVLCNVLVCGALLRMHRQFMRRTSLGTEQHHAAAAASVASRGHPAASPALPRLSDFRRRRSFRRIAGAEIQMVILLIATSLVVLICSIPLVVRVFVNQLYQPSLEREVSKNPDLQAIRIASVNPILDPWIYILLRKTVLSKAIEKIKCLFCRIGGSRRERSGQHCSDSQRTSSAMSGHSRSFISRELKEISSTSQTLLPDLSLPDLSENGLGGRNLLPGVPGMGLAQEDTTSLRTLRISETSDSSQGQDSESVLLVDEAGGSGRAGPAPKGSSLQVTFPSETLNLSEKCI

SMILES: CC(C)OC(=O)COc1cccc(NC(=O)c2cc(-c3cccc(F)c3)ccc2F)c1 [JV-GL1, 3-[(3′-fluoro-4-fluorobiphenyl-3-carbonyl)amino] phenoxyacetic acid isopropyl ester]
- incidence rate of periorbital skin swelling, dose relation [1, 8]: showed a certain dose dependent relationship
- recovery of periorbital skin redness [1, 8]: completely recovered by Day 2
- resolution of periorbital skin swelling [1, 8]: disappeared by Day 5
- incidence rate of periorbital skin redness ([1]; all three groups (10, 20, 30 micrograms), 2-3 hours post-dosing): 100%
- recovery of pupil constriction ([1]; except a single animal in the high-dose group): recovered by Day 15
- local findings at 10 to 30 micrograms/eye ([1]; in ointment, periorbital, 10 to 30 micrograms/eye): modest pupil constriction, erythema of the ocular surface and periorbital skin, and swelling of the periorbital skin
- incidence rate of pupil constriction ([1]; three groups (10, 20, 30 micrograms), after 2-3 hours post-dosing): 100%
- efficacy of periorbital skin administration versus eye drops (monkey): as effective as eye drops
- average change in TOP (human subjects [2]; Group 1, 0.30 μg/eye/day over 9 days, 0 hours after dose): −6%
- average change in TOP (human subjects [2]; Group 1, 0.30 μg/eye/day over 9 days, 0.5 hours after dose): −3%
- average change in TOP (human subjects [2]; Group 1, 0.30 μg/eye/day over 9 days, 2 hours after dose): 0%
- average change in TOP (human subjects [2]; Group 1, 0.30 μg/eye/day over 9 days, 8 hours after dose): −4%
- average change in TOP (human subjects [2]; Group 2, 0.59 μg/eye/day over 9 days, 0 hours after dose): −14%
- average change in TOP (human subjects [2]; Group 2, 0.59 μg/eye/day over 9 days, 0.5 hours after dose): −10%
- average change in TOP (human subjects [2]; Group 2, 0.59 μg/eye/day over 9 days, 2 hours after dose): −16%
- average change in TOP (human subjects [2]; Group 2, 0.59 μg/eye/day over 9 days, 8 hours after dose): −12%
- average change in TOP (human subjects [2]; Group 3, 0.99 μg/eye/day over 9 days, 0 hours after dose): −11%
- average change in TOP (human subjects [2]; Group 3, 0.99 μg/eye/day over 9 days, 0.5 hours after dose): −16%
- average change in TOP (human subjects [2]; Group 3, 0.99 μg/eye/day over 9 days, 2 hours after dose): −16%
- average change in TOP (human subjects [2]; Group 3, 0.99 μg/eye/day over 9 days, 8 hours after dose): −15%
- average change in TOP (human subjects [2]; Group 4, 1.92 μg/eye/day over 9 days, 0 hours after dose): −19%
- average change in TOP (human subjects [2]; Group 4, 1.92 μg/eye/day over 9 days, 0.5 hours after dose): −22%
- average change in TOP (human subjects [2]; Group 4, 1.92 μg/eye/day over 9 days, 2 hours after dose): −20%
- average change in TOP (human subjects [2]; Group 4, 1.92 μg/eye/day over 9 days, 8 hours after dose): −14%
- average change in TOP (human subjects [2]; Group 5, 3.99 μg/eye/day over 9 days, 0 hours after dose): −13%
- average change in TOP (human subjects [2]; Group 5, 3.99 μg/eye/day over 9 days, 0.5 hours after dose): −13%
- average change in TOP (human subjects [2]; Group 5, 3.99 μg/eye/day over 9 days, 2 hours after dose): −18%
- average change in TOP (human subjects [2]; Group 5, 3.99 μg/eye/day over 9 days, 8 hours after dose): −18%
- dose dependence of TOP reduction (human subjects [2]; Groups 1, 2, 3 and 4 (0.30 to 1.92 μg/eye/day)): dose-dependent trend in TOP reduction
- irritation or discomfort associated with AE of mild periorbital erythema (human subjects [3]): did not report any irritation or discomfort
- onset of marked decrease in IOP ([4]; 0.2 μg/eye (OD) once daily): as early as one day following initiation of treatment
- IOP by the end of the study ([4]; 0.2 μg/eye (OD) once daily Days 15-21, from a starting point of ˜25 mmHg): ~10 mmHg
- IOP decrease compared with baseline [5]: approximately 60%
- efficacy and local tolerability at lower doses ([6]; 0.2 to 5 micrograms/eye, periorbital): retained without obvious periorbital skin swelling and hyperemia of the periorbital skin and ocular surface
- pupil constriction during the dosing period ([6]; eyes treated with either eye drops or ointment): persistent pupil constriction was observed
- resolution of skin redness and swelling ([6]; single doses of ointment at 0.6, 2.0 or 5.0 micrograms per eye): disappeared a few hours to overnight after dosing

SMILES: O=C(O)COc1cccc(NC(=O)c2cc(-c3cccc(F)c3)ccc2F)c1 [JV-GL1 free acid, 3-[(3′-fluoro-4-fluorobiphenyl-3-carbonyl)amino] phenoxyacetic acid]
- affinity for DP receptors (DP receptors): negligible
- affinity for IP receptors (IP receptors): negligible
- affinity for TP receptors (TP receptors): negligible
- affinity for FP receptors (FP receptors): negligible
- maximal elevation of cAMP levels ([7]; HEK cells over-expressing human recombinant EP2 receptors, versus PGE2): comparable to that of the endogenous agonist PGE2
- EP2 receptor agonism ([7]; Woodward et al., 2019): potent and full EP2 receptor agonist
- affinity for EP4 receptors (EP4 receptors): negligible
- affinity for EP1 receptors (EP1 receptors): negligible
- affinity for EP3 receptors (EP3 receptors): negligible

Reference: patent US20230372274A1, “COMPOSITIONS AND METHODS FOR PERIORBITAL ADMINISTRATION OF EP2 RECEPTOR AGONISTS” (JENIVISION INC., priority 2021, published 2023)
